“And” between values parts separate entries of the source, which are not always exact repeats. Identical values can stand only once.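 Values below derive from 48-hour exposures of cells grown in 96-well plates, with endpoints linearly interpolated between the two concentrations bracketing the appropriate inhibition level. GI50 = concentration required for 50% inhibition of growth.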 The source made the active and inactive calls. No stated cut-off is given here; in the data, active = GI50 up to about 1.1 µM and inactive = higher.
What was measured:
Test in all cases: inhibition of tumour cell growth, NCI panel, 48 h
[1] = test system: 786-0
[2] = test system: A549
[3] = test system: ACHN
[4] = test system: DU-145
[5] = test system: EKVX
[6] = test system: HCT-15
[7] = test system: HL-60
[8] = test system: HOP-92
[9] = test system: HT-29
[10] = test system: K562
[11] = test system: NCI-H460
[12] = test system: NCI/ADR-RES
[13] = test system: PC-3
[14] = test system: RXF 393
[15] = test system: SF-268
[16] = test system: SK-OV-3
[17] = test system: SR
[18] = test system: SW-620
[19] = test system: TK-10
[20] = test system: KM-20L2

Measured: GI50

O=[N+]([O-])/C(C(Cl)=C(Cl)Cl)=C(/Sc1ccccc1)N1CCCCC1
inactive: [1] 31.8 µM | [2] > 93.5 µM | [3] > 100 µM | [4] > 53.2 µM | [5] > 91.4 µM | [7] 2.24 µM | [8] > 100 µM | [9] > 100 µM | [10] 23.9 µM | [11] > 100 µM | [12] > 100 µM | [13] > 75.9 µM | [14] 5.08 µM | [15] > 45.6 µM | [16] 34.1 µM | [17] 2.79 µM | [18] > 100 µM | [19] > 100 µM
> 100 µM: [6]

O=C(Nc1ccccc1)n1cc(-c2ccccn2)c(N2CCOCC2)n1
inactive: [1] 4.49 µM | [2] 18.8 µM | [3] 36.6 µM | [5] > 100 µM | [7] 2.44 µM | [8] 16.9 µM | [9] 2.69 µM | [10] 3.58 µM | [20] 2.68 µM | [11] 4.19 µM | [15] > 100 µM | [16] 9.84 µM | [18] 5.85 µM | [19] > 100 µM
4.47 µM: [6]

CC(=O)c1sc2c(c1OC(=O)c1ccc(Cl)cc1)c(=O)n(-c1ccccc1)c(=S)n2-c1ccccc1
9.18 µM: [6]
inactive: [1] 3.52 µM | [2] 25.4 µM | [3] 2.96 µM | [4] 25.9 µM | [5] 11.4 µM | [7] 9.23 µM | [8] 3.25 µM | [10] 9.04 µM | [11] 4.86 µM | [12] 4.73 µM | [13] 3.56 µM | [14] 2.22 µM | [15] 4.56 µM | [16] 1.21 µM | [17] 3.88 µM | [18] 12.7 µM | [19] 22.4 µM
active: [9] 0.946 µM

COc1ccccc1/N=N/c1c(-c2ccccc2)nn(C(=O)CC(=O)Nc2cccc(C)c2)c1-c1ccccc1
inactive: [1] 43.1 µM | [2] 26.5 µM | [3] 28.4 µM | [5] 41.2 µM | [7] 15.3 µM | [9] 16.4 µM | [10] 15.7 µM | [20] 27.3 µM | [11] 27.2 µM | [14] 53.3 µM | [15] 39.4 µM | [18] 41.3 µM | [19] 72.1 µM
21.1 µM: [6]

Cc1ccc(Sc2ccc(C)cc2[N+](=O)[O-])c([N+](=O)[O-])c1
> 100 µM: [6]
inactive: [1] > 100 µM | [2] > 100 µM | [3] > 100 µM | [5] > 100 µM | [7] > 100 µM | [8] > 100 µM | [9] > 10 µM | [10] > 100 µM | [20] > 100 µM | [11] > 100 µM | [14] > 100 µM | [15] > 100 µM | [16] > 100 µM | [18] > 100 µM | [19] > 100 µM

Cc1cc(C)c(S(=O)(=O)N(CCCCCCN)OCCCON(CCCCCCN)S(=O)(=O)c2c(C)cc(C)cc2C)c(C)c1
1.8 µM: [6]
inactive: [1] 1.9 µM | [2] 1.72 µM | [3] 2.55 µM | [4] 1.37 µM | [5] 1.79 µM | [7] 2.15 µM | [8] 1.46 µM | [9] 1.66 µM | [10] 3.61 µM | [11] 1.64 µM | [12] 13.2 µM | [13] 1.77 µM | [14] 1.7 µM | [15] 1.78 µM | [16] 1.71 µM | [17] 2.51 µM | [18] 2.15 µM | [19] 1.58 µM

CCOC(=O)[C-]([N+]#N)[Si](C)(C)C
27.5 µM: [6]
inactive: [1] > 100 µM | [2] > 100 µM | [3] > 100 µM | [8] > 100 µM | [9] > 100 µM | [20] > 100 µM | [11] > 100 µM | [14] > 100 µM | [15] 21.6 µM | [18] > 100 µM | [19] > 100 µM

Nc1nc(N)nc(CCCCc2nc(N)nc(N)n2)n1
> 100 µM: [6]
inactive: [1] > 100 µM | [2] > 100 µM | [3] > 100 µM | [4] > 100 µM | [5] > 100 µM | [7] > 100 µM | [8] > 100 µM | [9] > 100 µM | [10] > 100 µM | [11] > 100 µM | [12] > 100 µM | [13] > 100 µM | [14] > 100 µM | [15] > 100 µM | [16] > 100 µM | [17] > 100 µM | [18] > 100 µM | [19] > 100 µM

CCCCC/C(=N\c1[nH]nnc1C(N)=O)OCC
> 100 µM: [6]
inactive: [1] > 100 µM | [2] > 100 µM | [3] > 100 µM | [4] > 100 µM | [5] > 100 µM | [7] > 100 µM | [8] 26.2 µM | [9] > 100 µM | [10] > 100 µM | [11] > 100 µM | [12] > 100 µM | [13] > 100 µM | [14] > 100 µM | [15] > 100 µM | [16] > 100 µM | [17] > 100 µM | [18] > 100 µM | [19] > 100 µM

CC(=O)O[C@H]1CC[C@@]2(C)C(=CC[C@H]3[C@@H]4C[C@H](N5CCCC5)[C@H](OC(C)=O)[C@@]4(C)CC[C@@H]32)C1
inactive: [1] > 100 µM | [2] > 100 µM | [3] > 100 µM | [4] > 100 µM | [5] > 100 µM | [7] > 45.7 µM | [8] > 100 µM | [9] 21.7 µM | [10] 33.1 µM | [11] > 100 µM | [12] > 100 µM | [13] > 100 µM | [14] > 100 µM | [15] > 100 µM | [16] > 100 µM | [17] > 100 µM | [18] > 100 µM | [19] > 100 µM
> 100 µM: [6]

O=C(COc1ccc(Cl)cc1)N1CCN(C(=O)COc2ccc(Cl)cc2)c2ccccc21
inactive: [1] 64.9 µM | [2] 33.5 µM | [3] 33.6 µM | [5] 26.3 µM | [7] 13.4 µM | [8] 30.3 µM | [9] 50.5 µM | [10] 37.6 µM | [20] > 100 µM | [11] 60.7 µM | [14] 47.6 µM | [15] 41.6 µM | [16] 81.5 µM | [18] > 100 µM | [19] 33.4 µM

CC12CP(=O)(c3ccccc3)CC1C2(Cl)Cl (stereo not given)
inactive: [1] > 100 µM | [2] > 100 µM | [5] > 100 µM | [7] > 10 µM | [9] > 100 µM | [10] > 100 µM | [20] > 100 µM | [11] > 100 µM | [14] > 100 µM | [16] > 100 µM | [18] > 100 µM | [19] > 100 µM

CC(=O)Nc1c(Nc2ccccc2)[nH]c(C)nc1=S
inactive: [1] > 100 µM | [2] > 100 µM | [3] > 100 µM | [5] > 100 µM | [7] > 100 µM | [8] > 100 µM | [10] > 100 µM | [20] > 100 µM | [11] > 100 µM | [14] > 100 µM | [15] > 100 µM | [16] > 100 µM | [18] > 100 µM | [19] > 100 µM
> 100 µM: [6]

COC(=O)[C@@H]1C[C@@H](O)CN1C(=O)c1ccc([N+](=O)[O-])cc1[N+](=O)[O-]
inactive: [1] > 100 µM | [2] > 100 µM | [3] > 100 µM | [4] > 100 µM | [5] > 100 µM | [7] > 100 µM | [8] > 100 µM | [9] 51.2 µM | [10] > 100 µM | [11] > 100 µM | [12] > 100 µM | [13] > 100 µM | [14] > 100 µM | [15] > 100 µM | [16] > 100 µM | [17] > 100 µM | [18] > 100 µM | [19] > 100 µM
> 100 µM: [6]

CN(C)CCOC1(Cc2ccc(F)cc2)CCC(C(C)(C)C)CC1 (stereo not given)
inactive: [1] 4.92 µM and 4.2 µM | [2] 9.77 µM and 11.9 µM | [3] 11 µM and 12.9 µM | [4] 9.2 µM and 9.44 µM | [5] 11 µM and 16 µM | [7] 2.84 µM and 2.93 µM | [8] 12.2 µM | [9] 2.88 µM and 2.7 µM | [10] 2.03 µM and 2.19 µM | [11] 3.27 µM and 2.23 µM | [12] 12.9 µM and 10.6 µM | [13] 5.85 µM and 5.07 µM | [15] 12.4 µM and 12.9 µM | [16] 14 µM and 15.2 µM | [17] 2.63 µM and 2.29 µM | [18] 4.37 µM and 7.36 µM | [19] 6.95 µM and 12 µM
8.13 µM and 6.81 µM: [6]
active: [14] 0.857 µM

COC(=O)[C@@H]1COC(C(C)(C)C)N1C(=O)C(c1ccccc1)c1ccccc1 (stereo not given in full)
active: [17] 0.446 µM
35.4 µM: [6]
inactive: [1] 46.2 µM | [2] 65.8 µM | [3] 69.3 µM | [4] > 100 µM | [5] 55.7 µM | [7] 45.3 µM | [8] 37 µM | [9] 55.8 µM | [10] 19.5 µM | [11] 40.3 µM | [12] 34 µM | [13] 24.8 µM | [14] 13.2 µM | [15] > 100 µM | [16] 31.4 µM | [18] 43.8 µM | [19] 50.4 µM
